The source of these data is US10226453B2, “3-(1H-indol-2-yl)-1H-pyrazolo[4,3-B]pyridines and therapeutic uses thereof” (Samumed, LLC, priority 2015, dated 2019).

Assay type in all cases: cell-based
Experiment [1] has as its system Wnt activity (Sp5-Luc reporter, SW480 colon carcinoma cells). Nature of the experiment: Wnt activity screening assay: Sp5-Luc reporter gene in SW480 colon carcinoma cells. As to conditions: Homo sapiens; for EC50: overnight incubation, 10-point curve from 10 μM; for inhibition at 10 µM: given where EC50 >10 μM, read-out: percent inhibition at 10 μM. In outline:
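Wnt-driven firefly luciferase in SW480 colon carcinoma cells reports pathway activity after overnight compound exposure (10 μM top concentration, 3-fold steps). Signal is normalized to DMSO controls.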
A general note: In a reporter assay the amount or activity of a reporter protein is the signal.

The subject of a further experiment is IL-6 (THP-1 cells). Nature of the experiment: IL-6 inhibition in LPS-stimulated THP-1 human monocyte cells (HTRF). As to conditions: LPS 500 ng/mL; for EC50: 22 hours, IL6 HTRF; for inhibition at 10 µM: given where EC50 >10 μM, read-out: percent inhibition at 10 μM. In outline: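 THP-1 cells, serum-reduced (1% FBS) for 24 h, were preincubated with compound (10-point 1:3 series from 10 μM, 0.1% DMSO) for 2 h, then stimulated with 500 ng/mL LPS for 22 h at 37° C. IL-6 was read by HTRF (665/620 nm ratio) and normalized to DMSO. EC50 from four-parameter fit; % inhibition at 10 μM given if EC50 >10 μM.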
In general terms: TR-FRET usually uses a lanthanide donor and a delayed reading to cut background.

Experiment [2] deals with primary human mesenchymal stem cells (hMSCs). Nature of the experiment: Induction of chondrogenesis in primary human mesenchymal stem cells (hMSCs), nodule count. As to conditions: 144 h, 6 days; for EC50: concentration required to induce 50% levels of chondrogenesis of TGF-β3 control, read-out: Conc (nM) of 50% TGF-β3 activity; for Emax: relative to TGF-β3 (10 ng/mL) positive control, read-out: Max. Activity as % TGF-β3 activity. The protocol:
Representative compounds were screened using primary human mesenchymal stem cells (hMSCs) to determine their ability to induce chondrogenesis (process by which cartilage is developed).
Primary human mesenchymal stem cells (hMSCs) were purchased from Lonza (Walkersville, Md.) and expanded in Mesenchymal Stem Cell Growth Media (Lonza). Cells between passage 3 and 6 were used for the experiments.
Each compound was dissolved in DMSO as a 10 mM stock and used to prepare compound source plates. Serial dilution (1:3, 6-point dose-response curves from 2700 nM to 10 nM) and compound transfer was performed using the ECHO 550 (Labcyte, Sunnyvale, Calif.) into 96-well clear bottom assay plates (Greiner Bio-One) with appropriate DMSO backfill for a final DMSO concentration of 0.03%. hMSCs were plated at 20,000 cells/well in 250 μL/well Incomplete Chondrogenic Induction Medium (Lonza; DMEM, dexamethasone, ascorbate, insulin-transferrin-selenium [ITS supplement], gentamycin-amphotericin [GA-1000], sodium pyruvate, proline and L-glutamine). TGF-β3 (10 ng/mL) was used as a positive control for differentiation while negative control wells were treated with 75 nL DMSO for normalization and calculating EC50 values. Cells were incubated at 37° C. and 5% CO2 for 6 days. To image chondrogenic nodules, the cells were fixed using 4% formaldehyde (Electron Microscopy Sciences), and stained with 2 μg/mL Rhodamine B (Sigma-Aldrich) and 20 μM Nile Red (Sigma-Aldrich) [Johnson K., et. al, A Stem Cell-Based Approach to Cartilage Repair, Science, (2012). 336(6082), 717-721]. The nodules imaged (4 images per well at 4× magnification) by excitation at 531 nm and emission at 625 nm and quantified using the CellInsight CX5 (Thermo Scientific). Number of nodules in each well was normalized to the average of 3 DMSO treated wells on the same plate using Excel (Microsoft Inc.). The normalized averages (fold change over DMSO) of 3 replicate wells for each compound concentration were calculated. Due to solubility limitations of some of the compounds, curve fitting was incomplete leading to inaccurate EC50 determinations.
Using TGF-β3 as a positive control, the concentration of representative compounds required to induce 50% levels of chondrogenesis is reported. In addition, the maximum activity of each compound and the respective dose that each compound reached maximum chondrogenesis activity is reported.

Take `FC1(F)CCN(Cc2cncc(-c3ccc4[nH]nc(-c5cc6c(-c7ccccn7)cccc6[nH]5)c4n3)c2)C1` [Compound 166, 5-(5-((3,3-Difluoropyrrolidin-1-yl)methyl)pyridin-3-yl)-3-(4-(pyridin-2-yl)-1H-indol-2-yl)-1H-pyrazolo[4,3-b]pyridine]: the EC50 in experiment [1] came to 0.432 µM; in the experiment on IL-6 (THP-1 cells), 0.306 µM; in experiment [2] it was 10 nM. In addition, the Emax in experiment [2] was 82%.

Broadly, the inhibition is how much of the control response was suppressed. As to `c1cc(-c2ccoc2)c2cc(-c3n[nH]c4ccc(-c5cncc(OC6CCCCC6)c5)nc34)[nH]c2c1` [Compound 715, 5-(5-(Cyclohexyloxy)pyridin-3-yl)-3-(4-(furan-3-yl)-1H-indol-2-yl)-1H-pyrazolo[4,3-b]pyridine], in experiment [1], the EC50 was determined as 6.49 µM. In the experiment on IL-6 (THP-1 cells), the EC50 was over 10 µM and the inhibition at 10 µM was 36.2%.

For `Oc1cncc(-c2ccc3[nH]nc(-c4cc5c(-c6cccs6)cccc5[nH]4)c3n2)c1` [Compound 737, 5-(3-(4-(Thiophen-2-yl)-1H-indol-2-yl)-1H-pyrazolo[4,3-b]pyridin-5-yl) pyridin-3-ol], in experiment [1], the inhibition at 10 µM was found to be 3.3% and the EC50 is over 10 µM. The compound further showed an EC50 with IL-6 (THP-1 cells) of 0.347 µM.

For the compound `CN1CCN(c2cccc3[nH]c(-c4n[nH]c5ccc(-c6cncnc6)nc45)cc23)CC1` [Compound 251, 3-(4-(4-Methylpiperazin-1l-yl)-1H-indol-2-yl)-5-(pyrimidin-5-yl)-1H-pyrazolo[4,3-b]pyridine], in experiment [1], the inhibition at 10 µM amounted to 38.4% and the EC50 was over 10 µM. In addition, the EC50 in the experiment with IL-6 (THP-1 cells) stood at 0.751 µM. In experiment [2], the EC50 turned out to be 100 nM and the Emax is 67%.

Take `Fc1ccccc1-c1cccc2[nH]c(-c3n[nH]c4ccc(-c5cncc(CN6CCCCC6)c5)nc34)cc12` [Compound 71, 3-(4-(2-Fluorophenyl)-1H-indol-2-yl)-5-(5-(piperidin-1-ylmethyl)pyridin-3-yl)-1H-pyrazolo[4,3-b]pyridine]: the figures for the EC50 (in experiment [1]; in the experiment on IL-6 (THP-1 cells); in experiment [2]) were 0.663 µM, 0.271 µM and 100 nM, respectively. Besides, the Emax in experiment [2] was 96%.

For `FC1(F)CCN(Cc2cncc(-c3ccc4[nH]nc(-c5cc6c(-c7cccs7)cccc6[nH]5)c4n3)c2)C1` [Compound 362, 5-(5-((3,3-Difluoropyrrolidin-1-yl)methyl)pyridin-3-yl)-3-(4-(thiophen-2-yl)-1H-indol-2-yl)-1H-pyrazolo[4,3-b]pyridine], the EC50 in experiment [1] is 3.24 µM; in the experiment with IL-6 (THP-1 cells), 6.34 µM.

Regarding `CN(C)Cc1cncc(-c2ccc3[nH]nc(-c4cc5ccccc5[nH]4)c3n2)c1` [Compound 265, 1-(5-(3-(1H-Indol-2-yl)-1H-pyrazolo[4,3-b]pyridin-5-yl)pyridin-3-yl)-N,N-dimethylmethanamine], the EC50 in experiment [1] worked out at 0.904 µM. In addition, in the experiment on IL-6 (THP-1 cells), the EC50 is over 10 µM and the inhibition at 10 µM was 0%. The Emax in experiment [2] amounted to 21%.

For the compound `Fc1ccc(-c2cccc3[nH]c(-c4n[nH]c5ccc(-c6cncnc6)nc45)cc23)cc1` [Compound 55, 3-(4-(4-Fluorophenyl)-1H-indol-2-yl)-5-(pyrimidin-5-yl)-1H-pyrazolo[4,3-b] pyridine], the EC50 in experiment [1] came to 1.31 µM; in the experiment with IL-6 (THP-1 cells), 0.103 µM.

For `Fc1cccc(-c2cccc3[nH]c(-c4n[nH]c5ccc(-c6cncc(OCc7ccccc7)c6)nc45)cc23)c1` [Compound 546, 5-(5-(Benzyloxy)pyridin-3-yl)-3-(4-(3-fluorophenyl)-1H-indol-2-yl)-1H-pyrazolo[4,3-b]pyridine], the EC50 in experiment [1] was 2.66 µM; in the experiment on IL-6 (THP-1 cells), 2.91 µM.

With `c1cc(-c2ccoc2)c2cc(-c3n[nH]c4ccc(-c5cncc(CNCC6CCCC6)c5)nc34)[nH]c2c1` [Compound 333, 1-Cyclopentyl-N-((5-(3-(4-(furan-3-yl)-1H-indol-2-yl)-1H-pyrazolo[4,3-b]pyridin-5-yl)pyridin-3-yl)methyl)methanamine], the EC50 in experiment [1] worked out at 3.64 µM; in the experiment on IL-6 (THP-1 cells), 3.57 µM. Also, in experiment [2], the Emax was 25%.

Turning to `Nc1cncc(-c2ccc3[nH]nc(-c4cc5ncccc5[nH]4)c3n2)c1` [Compound 507, 5-(3-(1H-Pyrrolo[3,2-b]pyridin-2-yl)-1H-pyrazolo[4,3-b]pyridin-5-yl) pyridin-3-amine], the EC50 turned out to be 0.256 µM in experiment [1] and 0.008 µM with IL-6 (THP-1 cells).

In the case of `c1cc(-c2ccoc2)c2cc(-c3n[nH]c4ccc(-c5cn[nH]c5)nc34)[nH]c2c1` [Compound 711, 3-(4-(Furan-3-yl)-1H-indol-2-yl)-5-(1H-pyrazol-4-yl)-1H-pyrazolo[4,3-b] pyridine], the EC50 in experiment [1] is 8.16 µM; in the experiment with IL-6 (THP-1 cells), 0.072 µM.

For the compound `Fc1ccccc1-c1cccc2[nH]c(-c3n[nH]c4ccc(-c5cncc(CNCc6ccccc6)c5)nc34)cc12` [Compound 80, N-Benzyl-1-(5-(3-(4-(2-fluorophenyl)-1H-indol-2-yl)-1H-pyrazolo[4,3-b]pyridin-5-yl)pyridin-3-yl)methanamine], in experiment [1], the inhibition at 10 µM is 44% and the EC50 was over 10 µM. This compound gave an EC50 in the experiment on IL-6 (THP-1 cells) of 6.73 µM.

With `c1cnc2cc(-c3n[nH]c4ccc(-c5cn[nH]c5)nc34)[nH]c2c1` [Compound 1021, 5-(1H-Pyrazol-4-yl)-3-(1H-pyrrolo[3,2-b]pyridin-2-yl)-1H-pyrazolo[4,3-b] pyridine], the EC50 in experiment [1] turned out to be 0.767 µM. In addition, in the experiment on IL-6 (THP-1 cells), the EC50 is over 10 µM and the inhibition at 10 µM came out at 0%.

As for `c1cc(-c2ccncc2)c2cc(-c3n[nH]c4ccc(-c5cncc(CNCC6CCCC6)c5)nc34)[nH]c2c1` [Compound 137, 1-Cyclopentyl-N-((5-(3-(4-(pyridin-4-yl)-1H-indol-2-yl)-1H-pyrazolo[4,3-b]pyridin-5-yl)pyridin-3-yl)methyl)methanamine], the EC50 turned out to be 7.16 µM in experiment [1] and 3.24 µM in the experiment with IL-6 (THP-1 cells).

Consider `c1ccc(-c2ccc3[nH]nc(-c4cc5c(-c6ccncc6)cccc5[nH]4)c3n2)nc1` [Compound 140, 5-(Pyridin-2-yl)-3-(4-(pyridin-4-yl)-1H-indol-2-yl)-1H-pyrazolo[4,3-b] pyridine], for which the figures for the EC50 (in experiment [1]; in the experiment on IL-6 (THP-1 cells)) were 3.06 µM and 0.249 µM, respectively.

On to `Oc1cncc(-c2ccc3[nH]nc(-c4cc5ncccc5[nH]4)c3n2)c1` [Compound 1031, 5-(3-(1H-Pyrrolo[3,2-b]pyridin-2-yl)-1H-pyrazolo[4,3-b]pyridin-5-yl) pyridin-3-ol], for which the EC50 in experiment [1] stood at 0.883 µM; in the experiment on IL-6 (THP-1 cells) it was 0.091 µM.

Regarding `c1cncc(-c2ccc3[nH]nc(-c4cc5ccccc5[nH]4)c3n2)c1` [Compound 256, 3-(1H-Indol-2-yl)-5-(pyridin-3-yl)-1H-pyrazolo[4,3-b]pyridine], the EC50 in experiment [1] amounted to 1.3 µM; in the experiment on IL-6 (THP-1 cells) it was 0.013 µM.

Take `CC(C)(C)C(=O)Nc1cncc(-c2ccc3[nH]nc(-c4cc5c(-c6cccc(F)c6)cccc5[nH]4)c3n2)c1` [Compound 8, N-(5-(3-(4-(3-Fluorophenyl)-1H-indol-2-yl)-1H-pyrazolo[4,3-b]pyridin-5-yl)pyridin-3-yl)pivalamide]: the values for the EC50 (in experiment [1]; in the experiment on IL-6 (THP-1 cells)) were 2.93 µM and 2.71 µM, respectively.

Consider `c1ccc(-c2ccc3[nH]nc(-c4cc5c(N6CCCCC6)cccc5[nH]4)c3n2)nc1` [Compound 196, 3-(4-(Piperidin-1-yl)-1H-indol-2-yl)-5-(pyridin-2-yl)-1H-pyrazolo[4,3-b] pyridine], for which, in experiment [1], the inhibition at 10 µM was found to be 6.2% and the EC50 was over 10 µM. Moreover, the EC50 in the experiment on IL-6 (THP-1 cells) was found to be 1.86 µM.
